Measured values taken from patent US9376425B2, “Heterocyclic compounds as MDM2 inhibitors for the treatment of cancer” (AMGEN INC., priority 2011, dated 2016).

Target: T1, human MDM2 (GST-hMDM2 aa 1-188), interaction with biotinylated-p53 (aa 1-83) (Homo sapiens, UniProt Q00987)
T1 construct: Amino acid residues 1-188 of human MDM2 were expressed; made in house; host or cells: Escherichia coli
Assay: Homogenous Time-Resolved Fluorescence Assay (HTRF1 assay), inhibition of HDM2-p53 interaction
Format: binding
Conditions: 2.5 nM GST-hMDM2, 5 nM biotinylated-p53, 200 mM KF
Description: Homogenous Time-Resolved Fluorescence Assay (HTRF1 Assay)
Residues 1-83 of human p53 were expressed as an amino-terminal AviTag™-TrxA-6xHis fusion protein (biotinylated p53) in E. coli. Each protein was purified from cell paste by affinity chromatography.
Specifically, 10 uL of GST-hMDM2 was incubated with 10 ul of diluted compound (various concentrations, serially diluted) in 10% DMSO for 20 minutes at room temperature. 20 uL of biotinylated-p53 was added to the GST-hMDM2+ compound mixture, and then incubated at room temperature for 60 min. 10 uL of detection buffer consisting of SA-XLent, anti-GST cryptate antibody and KF was added to GST-hMDM2, biotinylated-p53 and compound reaction and left at room temperature to reach equilibrium for >4 hrs. The final concentration of DMSO in the reaction was 2%. Time-resolved fluorescence readings were measured on a microplate multilabel reader. Percentage of inhibition was calculated relative to nutlin-3.

T1 sequence (Q00987 1-188): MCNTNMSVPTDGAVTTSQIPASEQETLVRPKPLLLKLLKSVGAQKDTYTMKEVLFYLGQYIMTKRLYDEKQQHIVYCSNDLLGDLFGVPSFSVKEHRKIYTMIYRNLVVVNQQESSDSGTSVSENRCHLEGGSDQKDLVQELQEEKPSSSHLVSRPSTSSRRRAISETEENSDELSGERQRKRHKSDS

Row | SMILES | IC50 [µM]
1 | O=C(O)C[C@@H]1O[C@H](c2cccc(Cl)c2)[C@@H](c2nc3ccccc3s2)N(CC2CC2)C1=O (racemic) [Example 3, 2-((2S,5S,6R)-5-(Benzo[d]thiazol-2-yl)-6-(3-chlorophenyl)-4-(cyclopropylmethyl)-3-oxomorpholin-2-yl)acetic acid and 2-((2R,5R,6S)-5-(Benzo[d]thiazol-2-yl)-6-(3-chlorophenyl)-4-(cyclopropylmethyl)-3-oxomorpholin-2-yl)acetic acid] | 23.5
2 | O=C(O)C[C@H]1O[C@H](c2cccc(Cl)c2)[C@@H](c2cc3ccccc3[nH]2)N(CC2CC2)C1=O (single isomer, unassigned) [Example 1, 2-((2R,5R,6R)-6-(3-Chlorophenyl)-4-(cyclopropylmethyl)-5-(1H-indol-2-yl)-3-oxomorpholin-2-yl)acetic acid or 2-((2S,5R,6R)-6-(3-Chlorophenyl)-4-(cyclopropylmethyl)-5-(1H-indol-2-yl)-3-oxomorpholin-2-yl)acetic acid] | 33.4
3 | O=C(O)C[C@@H]1O[C@H](c2cccc(Cl)c2)[C@@H](c2cc3ccccc3[nH]2)N(CC2CC2)C1=O (single isomer, unassigned) [Example 2, 2-((2S,5R,6R)-6-(3-Chlorophenyl)-4-(cyclopropylmethyl)-5-(1H-indol-2-yl)-3-oxomorpholin-2-yl)acetic acid or 2-((2R,5R,6R)-6-(3-Chlorophenyl)-4-(cyclopropylmethyl)-5-(1H-indol-2-yl)-3-oxomorpholin-2-yl)acetic acid] | 31.4
4 | C[C@H](C1CCCCC1)N1C(=O)[C@H](CC(=O)O)O[C@H](c2cccc(Cl)c2)[C@H]1c1ccc(Cl)cc1 (single isomer, unassigned) [Example 18, 2-((2S,5R,6R)-6-(3-chlorophenyl)-5-(4-chlorophenyl)-4-((R)-1-cyclohexylethyl)-3-oxomorpholin-2-yl)acetic acid or 2-((2S,5R,6R)-6-(3-Chlorophenyl)-5-(4-chlorophenyl)-4-((S)-1-cyclohexylethyl)-3-oxomorpholin-2-yl)acetic acid] | 0.1
5 | C[C@@H](C1CCCCC1)N1C(=O)[C@H](CC(=O)O)O[C@H](c2cccc(Cl)c2)[C@H]1c1ccc(Cl)cc1 (single isomer, unassigned) [Example 19, 2-((2S,5R,6R)-6-(3-chlorophenyl)-5-(4-chlorophenyl)-4-((S)-1-cyclohexylethyl)-3-oxomorpholin-2-yl)acetic acid or 2-((2S,5R,6R)-6-(3-chlorophenyl)-5-(4-chlorophenyl)-4-((R)-1-cyclohexylethyl)-3-oxomorpholin-2-yl)acetic acid] | 0.6
6 | CC[C@@H](C(=O)OC(C)(C)C)N1C(=O)[C@H](CC(=O)O)O[C@H](c2cccc(Cl)c2)[C@H]1c1ccc(Cl)cc1 (single isomer, unassigned) [Example 31] | 0.1
7 | CC[C@H](C(=O)OC(C)(C)C)N1C(=O)[C@@H](CC(=O)O)O[C@H](c2cccc(Cl)c2)[C@H]1c1ccc(Cl)cc1 (single isomer, unassigned) [Example 33] | 1.1
8 | O=C(O)C[C@H]1O[C@H](c2cccc(Cl)c2)[C@@H](c2ccc(Cl)cc2F)N(CC2CC2)C1=O (single isomer, unassigned) [Example 62] | 0.9
9 | O=C(O)CC1O[C@H](c2cccc(Cl)c2)[C@@H](c2ccc(Br)cc2)N(CC2CC2)C1=O (single isomer, unassigned) [Example 68] | 14.2
10 | O=C(O)CC1O[C@H](c2cccc(Cl)c2)[C@@H](c2ccc(Cl)nc2)N(CC2CC2)C1=O (single isomer, unassigned) [Example 71] | 3.1
11 | O=C(O)CC1O[C@H](c2cccc(Cl)c2)[C@@H](c2ccc(Cl)nc2)N(CC2CC2)C1=O (single isomer, unassigned) [Example 72] | 1.5
12 | COc1ccc([C@@H]2[C@@H](c3cccc(Cl)c3)OC(CC(=O)O)C(=O)N2CC2CC2)cn1 (single isomer, unassigned) [Example 73] | 11.6
13 | COc1ccc([C@@H]2[C@@H](c3cccc(Cl)c3)OC(CC(=O)O)C(=O)N2CC2CC2)cn1 (single isomer, unassigned) [Example 74] | 4.5
14 | COc1ccc([C@@H]2[C@@H](c3cccc(Cl)c3)OC(CC(=O)O)C(=O)N2CC2CC2)cc1 (single isomer, unassigned) [Example 75] | 3.7
15 | COc1ccc([C@@H]2[C@@H](c3cccc(Cl)c3)OC(CC(=O)O)C(=O)N2CC2CC2)cc1 (single isomer, unassigned) [Example 76] | 1.4
16 | O=C(O)CC1O[C@H](c2cccc(Cl)c2)[C@@H](c2ccc(Cl)c(F)c2)N(CC2CC2)C1=O (single isomer, unassigned) [Example 77] | 0.3
17 | O=C(O)CC1O[C@H](c2cccc(Cl)c2)[C@@H](c2ccc(Cl)cc2Br)N(CC2CC2)C1=O (single isomer, unassigned) [Example 79] | 70.2
18 | O=C(O)CC1O[C@H](c2cccc(Cl)c2)[C@@H](c2ccc(Cl)cc2Br)N(CC2CC2)C1=O (single isomer, unassigned) [Example 80] | 14.8
19 | O=C(O)CC1O[C@H](c2cc(F)cc(Cl)c2)[C@@H](c2ccc(Cl)cc2)N(CC2CC2)C1=O (single isomer, unassigned) [Example 83] | 0.3
20 | O=C(O)CC1O[C@H](c2cc(F)cc(Cl)c2)[C@@H](c2ccc(Cl)cc2)N(CC2CC2)C1=O (single isomer, unassigned) [Example 84] | 0.3
21 | O=C(O)CC1O[C@H](c2cccc(F)c2)[C@@H](c2ccc(Cl)cc2)N(CC2CC2)C1=O (single isomer, unassigned) [Example 85] | 1.6
22 | O=C(O)CC1O[C@H](c2cncc(Cl)c2)[C@@H](c2ccc(Cl)cc2)N(CC2CC2)C1=O (single isomer, unassigned) [Example 88] | 2.1
23 | COc1cccc([C@H]2OC(CC(=O)O)C(=O)N(CC3CC3)[C@@H]2c2ccc(Cl)cc2)c1 (single isomer, unassigned) [Example 89] | 6.1
24 | COc1cccc([C@H]2OC(CC(=O)O)C(=O)N(CC3CC3)[C@@H]2c2ccc(Cl)cc2)c1 (single isomer, unassigned) [Example 90] | 3.5

More lines, now with the values ahead:

Row | IC50 [µM] | SMILES
25 | 25 | O=C(O)C[C@H]1O[C@H](c2cccc(Cl)c2)[C@@H](c2nc3ccccc3s2)N(CC2CC2)C1=O (racemic) [Example 4, 2-((2R,5S,6R)-5-(Benzo[d]thiazol-2-yl)-6-(3-chlorophenyl)-4-(cyclopropylmethyl)-3-oxomorpholin-2-yl)acetic acid and 2-((2S,5R,6S)-5-(Benzo[d]thiazol-2-yl)-6-(3-chlorophenyl)-4-(cyclopropylmethyl)-3-oxomorpholin-2-yl)acetic acid]
26 | 39.5 | Cn1c([C@@H]2[C@@H](c3cccc(Cl)c3)O[C@@H](CC(=O)O)C(=O)N2CC2CC2)nc2ccccc21 (racemic) [Example 5, 2-((2S,5R,6R)-6-(3-Chlorophenyl)-4-(cyclopropylmethyl)-5-(1-methyl-1H-benzo[d]imidazol-2-yl)-3-oxomorpholin-2-yl)acetic acid and 2-((2R,5S,6S)-6-(3-Chlorophenyl)-4-(cyclopropylmethyl)-5-(1-methyl-1H-benzo[d]imidazol-2-yl)-3-oxomorpholin-2-yl)acetic acid]
27 | 1.1 | O=C(O)C[C@@H]1O[C@H](c2cccc(Cl)c2)[C@@H](c2ccc(Cl)cn2)N(CC2CC2)C1=O (single isomer, unassigned) [Example 7]
28 | 1.6 | O=C(O)C[C@H]1OC(c2cccc(Cl)c2)[C@@H](c2ccc(Cl)cn2)N(CC2CC2)C1=O (single isomer, unassigned) [Example 8]
29 | 1.8 | CC[C@H](C(=O)OC(C)(C)C)N1C(=O)[C@H](CC(=O)O)O[C@H](c2cccc(Cl)c2)[C@H]1c1ccc(Cl)cc1 (single isomer, unassigned) [Example 30]
30 | 0.1 | CC[C@@H](C(=O)OC(C)(C)C)N1C(=O)[C@@H](CC(=O)O)O[C@H](c2cccc(Cl)c2)[C@H]1c1ccc(Cl)cc1 (single isomer, unassigned) [Example 32]
31 | 17.5 | O=C(O)CC1O[C@H](c2cccc(Cl)c2)[C@@H](c2ccc(Br)cc2)N(CC2CC2)C1=O (single isomer, unassigned) [Example 67]
32 | 0.8 | O=C(O)CC1O[C@H](c2cccc(Cl)c2)[C@@H](c2ccc(Cl)c(F)c2)N(CC2CC2)C1=O (single isomer, unassigned) [Example 78]
33 | 15.7 | O=C(O)CC1O[C@H](c2cccc(Cl)c2)[C@@H](c2ccc(C(F)(F)F)nc2)N(CC2CC2)C1=O (single isomer, unassigned) [Example 81]
34 | 30 | O=C(O)CC1O[C@H](c2cccc(Cl)c2)[C@@H](c2ccc(C(F)(F)F)nc2)N(CC2CC2)C1=O (single isomer, unassigned) [Example 82]
35 | 0.8 | O=C(O)CC1O[C@H](c2cccc(F)c2)[C@@H](c2ccc(Cl)cc2)N(CC2CC2)C1=O (single isomer, unassigned) [Example 86]
36 | 1.8 | O=C(O)CC1O[C@H](c2cncc(Cl)c2)[C@@H](c2ccc(Cl)cc2)N(CC2CC2)C1=O (single isomer, unassigned) [Example 87]
37 | 0.6 | O=C(O)CC1O[C@H](c2ccnc(Cl)c2)[C@@H](c2ccc(Cl)cc2)N(CC2CC2)C1=O (single isomer, unassigned) [Example 91]
38 | 19.5 | COc1cncc([C@H]2OC(CC(=O)O)C(=O)N(CC3CC3)[C@@H]2c2ccc(Cl)cc2)c1 (single isomer, unassigned) [Example 92]
